Active and inactive are the calls of the source. Bounds are passed on as bounds.

The target of one assay is Coagulation factor XII (Homo sapiens, UniProt P00748). Format: functional.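 Note: activated factor XIIa alpha cleaving a fluorogenic AMC peptide substrate; inhibitor potency from loss of enzyme activity.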
A short description of assay [1]: cytotoxicity in HEK-293T cells, dose response, cytotoxicity control for TCR NF-kB inhibitor project, luminescence, T-cell screen hits (AID 489026).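 Note: cells exposed to compound about 14 hours before the viability readout.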 The assay is classed as functional, cell-based.
For assay [2], the target named is T1, Rac GTPase-activating protein 1 (Homo sapiens, UniProt Q9H0H5).
T1 sequence (Q9H0H5 whole entry): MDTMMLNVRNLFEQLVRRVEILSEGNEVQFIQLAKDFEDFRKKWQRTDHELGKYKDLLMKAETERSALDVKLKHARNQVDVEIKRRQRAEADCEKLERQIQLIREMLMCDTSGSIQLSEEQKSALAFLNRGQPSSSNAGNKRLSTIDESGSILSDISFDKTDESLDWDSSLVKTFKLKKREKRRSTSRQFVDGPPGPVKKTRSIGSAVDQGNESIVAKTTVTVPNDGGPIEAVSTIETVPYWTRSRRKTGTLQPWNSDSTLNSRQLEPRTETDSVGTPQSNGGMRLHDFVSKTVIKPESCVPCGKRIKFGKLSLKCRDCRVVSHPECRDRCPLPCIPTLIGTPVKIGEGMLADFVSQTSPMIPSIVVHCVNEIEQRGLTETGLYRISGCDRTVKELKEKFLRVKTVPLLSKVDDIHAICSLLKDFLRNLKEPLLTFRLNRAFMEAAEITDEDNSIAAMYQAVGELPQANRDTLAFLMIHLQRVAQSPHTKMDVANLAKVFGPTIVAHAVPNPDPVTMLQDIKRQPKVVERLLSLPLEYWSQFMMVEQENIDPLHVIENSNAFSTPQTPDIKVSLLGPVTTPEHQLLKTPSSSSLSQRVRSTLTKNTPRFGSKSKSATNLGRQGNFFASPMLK
Kind of assay: MgcRacGAP GTPase-activating activity inhibitors, confirmation, biochemical, ADP Hunter fluorescence, primary and confirmatory (AID 624330). Format: functional.

The target in assay [3] is Eukaryotic translation initiation factor 4E (Mus musculus, UniProt P63073). Kind of assay: eIF4E–eIF4G protein interaction inhibitors, dose response, biochemical, TR-FRET (AID 855).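 Note: potency for disrupting eIF4E binding to eIF4GI seen as loss of FRET.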 The assay is classed as functional.
Sequence of Eukaryotic translation initiation factor 4E (P63073 whole entry): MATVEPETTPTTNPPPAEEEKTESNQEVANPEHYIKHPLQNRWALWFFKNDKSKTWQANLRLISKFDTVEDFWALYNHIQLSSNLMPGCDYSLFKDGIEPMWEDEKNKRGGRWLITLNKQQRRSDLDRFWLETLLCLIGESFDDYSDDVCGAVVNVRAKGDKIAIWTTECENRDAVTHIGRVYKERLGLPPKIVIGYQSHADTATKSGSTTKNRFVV
For assay [4], the target named is T2, Voltage-gated N-type calcium channel alpha-1B subunit/Amyloid beta A4 precursor protein-binding family A member 1 (Homo sapiens, UniProt Q00975+Q02410). Format: protein assay.
T2 sequence (Q00975 whole entry): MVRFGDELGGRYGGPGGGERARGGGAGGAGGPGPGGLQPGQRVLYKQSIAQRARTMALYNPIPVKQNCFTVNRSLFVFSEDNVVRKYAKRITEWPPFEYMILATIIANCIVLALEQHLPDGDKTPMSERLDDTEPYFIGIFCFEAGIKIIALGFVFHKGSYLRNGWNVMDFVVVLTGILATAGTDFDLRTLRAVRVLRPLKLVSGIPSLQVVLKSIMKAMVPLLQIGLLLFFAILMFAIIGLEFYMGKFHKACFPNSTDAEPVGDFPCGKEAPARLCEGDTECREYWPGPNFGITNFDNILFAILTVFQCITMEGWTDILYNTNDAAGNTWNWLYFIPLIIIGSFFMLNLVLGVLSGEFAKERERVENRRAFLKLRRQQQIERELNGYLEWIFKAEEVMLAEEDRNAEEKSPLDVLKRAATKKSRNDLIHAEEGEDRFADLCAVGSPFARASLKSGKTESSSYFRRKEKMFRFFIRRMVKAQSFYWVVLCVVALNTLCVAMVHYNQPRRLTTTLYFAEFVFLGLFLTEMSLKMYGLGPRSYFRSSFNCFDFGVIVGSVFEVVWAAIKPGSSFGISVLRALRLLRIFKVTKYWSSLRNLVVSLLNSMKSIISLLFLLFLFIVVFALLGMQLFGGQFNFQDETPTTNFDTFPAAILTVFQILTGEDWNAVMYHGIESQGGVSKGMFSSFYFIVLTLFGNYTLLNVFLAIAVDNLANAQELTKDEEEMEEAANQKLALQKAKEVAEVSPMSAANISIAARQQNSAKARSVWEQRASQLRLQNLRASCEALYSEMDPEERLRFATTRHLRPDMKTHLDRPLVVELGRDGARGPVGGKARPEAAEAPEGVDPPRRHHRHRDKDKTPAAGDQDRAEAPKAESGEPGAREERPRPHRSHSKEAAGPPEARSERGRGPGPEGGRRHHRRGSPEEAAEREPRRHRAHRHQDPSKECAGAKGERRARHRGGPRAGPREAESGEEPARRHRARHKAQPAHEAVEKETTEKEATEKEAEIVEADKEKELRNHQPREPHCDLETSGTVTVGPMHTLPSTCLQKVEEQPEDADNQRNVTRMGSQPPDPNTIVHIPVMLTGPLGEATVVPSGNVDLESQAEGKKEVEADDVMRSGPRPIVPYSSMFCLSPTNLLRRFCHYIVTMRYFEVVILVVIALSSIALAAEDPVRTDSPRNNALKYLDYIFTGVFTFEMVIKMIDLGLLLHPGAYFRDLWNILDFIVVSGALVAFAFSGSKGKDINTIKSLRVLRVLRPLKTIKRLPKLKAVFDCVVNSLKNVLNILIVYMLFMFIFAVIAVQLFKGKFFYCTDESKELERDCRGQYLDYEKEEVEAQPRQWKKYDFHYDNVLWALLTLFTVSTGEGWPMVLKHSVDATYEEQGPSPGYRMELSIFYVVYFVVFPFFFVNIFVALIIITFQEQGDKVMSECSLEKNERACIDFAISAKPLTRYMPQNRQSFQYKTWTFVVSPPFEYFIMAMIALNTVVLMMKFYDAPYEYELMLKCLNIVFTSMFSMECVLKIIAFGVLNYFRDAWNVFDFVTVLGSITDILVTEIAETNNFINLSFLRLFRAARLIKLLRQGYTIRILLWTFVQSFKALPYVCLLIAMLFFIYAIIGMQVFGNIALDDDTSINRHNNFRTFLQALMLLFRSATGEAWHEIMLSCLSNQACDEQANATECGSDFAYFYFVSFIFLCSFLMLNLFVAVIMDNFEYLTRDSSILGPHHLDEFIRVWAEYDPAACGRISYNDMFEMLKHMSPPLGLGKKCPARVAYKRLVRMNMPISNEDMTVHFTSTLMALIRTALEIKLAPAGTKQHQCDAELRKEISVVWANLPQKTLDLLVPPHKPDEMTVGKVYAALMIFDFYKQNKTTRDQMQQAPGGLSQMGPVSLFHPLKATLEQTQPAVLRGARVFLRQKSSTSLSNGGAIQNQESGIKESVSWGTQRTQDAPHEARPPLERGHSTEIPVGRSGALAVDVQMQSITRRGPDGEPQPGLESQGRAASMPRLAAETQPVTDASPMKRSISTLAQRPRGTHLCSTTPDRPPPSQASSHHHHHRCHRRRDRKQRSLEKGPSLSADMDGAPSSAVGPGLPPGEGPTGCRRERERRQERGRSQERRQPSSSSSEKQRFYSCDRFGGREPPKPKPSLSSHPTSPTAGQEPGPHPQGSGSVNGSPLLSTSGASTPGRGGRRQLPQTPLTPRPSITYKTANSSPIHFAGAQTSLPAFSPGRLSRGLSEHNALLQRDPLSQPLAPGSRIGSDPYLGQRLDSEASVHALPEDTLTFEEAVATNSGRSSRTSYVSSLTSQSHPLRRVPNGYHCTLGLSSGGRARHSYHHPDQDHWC
T2 sequence (Q02410 whole entry): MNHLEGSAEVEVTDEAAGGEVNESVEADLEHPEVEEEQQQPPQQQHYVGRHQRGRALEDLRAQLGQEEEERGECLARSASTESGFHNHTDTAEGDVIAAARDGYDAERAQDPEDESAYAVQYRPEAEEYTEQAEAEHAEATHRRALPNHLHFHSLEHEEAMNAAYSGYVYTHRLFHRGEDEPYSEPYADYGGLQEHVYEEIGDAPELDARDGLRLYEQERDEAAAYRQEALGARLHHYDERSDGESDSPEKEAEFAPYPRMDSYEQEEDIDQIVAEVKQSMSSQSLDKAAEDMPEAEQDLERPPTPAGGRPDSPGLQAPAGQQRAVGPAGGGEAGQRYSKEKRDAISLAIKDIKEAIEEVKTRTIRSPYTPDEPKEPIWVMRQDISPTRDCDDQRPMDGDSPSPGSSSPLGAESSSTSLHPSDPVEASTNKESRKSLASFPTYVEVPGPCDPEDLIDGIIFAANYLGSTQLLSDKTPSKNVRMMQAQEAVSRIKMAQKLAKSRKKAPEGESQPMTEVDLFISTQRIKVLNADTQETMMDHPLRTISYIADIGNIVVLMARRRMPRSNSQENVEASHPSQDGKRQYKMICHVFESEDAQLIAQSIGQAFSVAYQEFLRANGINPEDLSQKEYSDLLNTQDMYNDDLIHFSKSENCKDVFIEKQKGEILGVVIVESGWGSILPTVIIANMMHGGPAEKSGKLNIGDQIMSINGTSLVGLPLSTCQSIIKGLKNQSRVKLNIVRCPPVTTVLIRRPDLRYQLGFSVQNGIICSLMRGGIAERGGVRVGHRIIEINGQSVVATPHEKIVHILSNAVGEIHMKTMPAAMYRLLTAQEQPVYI
The target of assay [5] is T2, Voltage-gated N-type calcium channel alpha-1B subunit/Amyloid beta A4 precursor protein-binding family A member 1. The assay is classed as protein assay. The source holds these as a separate data set.
Assay [6] deals with DNA dC->dU-editing enzyme APOBEC-3G (Homo sapiens, UniProt Q9HC16). Kind of assay: Dose Response confirmation of small molecule APOBEC3G DNA Deaminase Inhibitors via a fluorescence-based single-stranded DNA deaminase assay. [Related pubchem assays (depositor defined):AID493012, AID493028]. Format: functional.
Sequence of DNA dC->dU-editing enzyme APOBEC-3G (Q9HC16 whole entry): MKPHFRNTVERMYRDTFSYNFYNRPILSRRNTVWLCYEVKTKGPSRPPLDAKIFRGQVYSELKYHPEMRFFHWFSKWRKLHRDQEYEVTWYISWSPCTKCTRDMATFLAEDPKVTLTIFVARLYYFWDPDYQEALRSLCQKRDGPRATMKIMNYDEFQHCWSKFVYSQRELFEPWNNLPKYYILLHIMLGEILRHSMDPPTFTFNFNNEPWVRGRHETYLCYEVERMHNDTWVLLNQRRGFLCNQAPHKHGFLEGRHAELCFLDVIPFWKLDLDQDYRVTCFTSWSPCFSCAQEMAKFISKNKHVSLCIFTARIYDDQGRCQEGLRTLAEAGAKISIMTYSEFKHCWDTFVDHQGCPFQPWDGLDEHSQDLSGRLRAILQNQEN
In assay [7] the target is DNA dC->dU-editing enzyme APOBEC-3A (Homo sapiens, UniProt P31941). Kind of assay: APOBEC3A DNA deaminase inhibitors, dose response, biochemical (AID 504722). Format: functional.
Sequence of DNA dC->dU-editing enzyme APOBEC-3A (P31941 whole entry): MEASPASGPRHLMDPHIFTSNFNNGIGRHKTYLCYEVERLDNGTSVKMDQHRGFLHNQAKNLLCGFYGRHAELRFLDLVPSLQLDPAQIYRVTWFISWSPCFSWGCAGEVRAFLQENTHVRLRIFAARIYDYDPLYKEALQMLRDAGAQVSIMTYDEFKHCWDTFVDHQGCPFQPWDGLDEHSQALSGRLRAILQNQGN
Assay [8] concerns the target G-protein coupled receptor 55 (Homo sapiens, UniProt Q9Y2T6). The experiment in a line: GPR55 agonists via beta-arrestin recruitment, primary screen, imaging, U2OS cells, beta-arrestin-GFP redistribution (AID 1961). The assay is classed as functional. (Activated receptors often draw arrestin, which recruitment assays turn into a signal.)
Another assay addresses Paired box protein Pax-8 (Homo sapiens, UniProt Q06710). Kind of assay: inhibitors of PAX8-driven TPO luciferase reporter, dose response, RMG-I cells, cherry-pick (AID 687027).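 Note: luciferase reporter driven by Pax8 target thyroperoxidase promoter measured by SteadyGlo luminescence.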 Format: functional, cell-based. (In general: Reporter assays use an easily measured gene product as a stand-in for the process of interest.)

Sequence of Coagulation factor XII (P00748 20-372 limits assumed): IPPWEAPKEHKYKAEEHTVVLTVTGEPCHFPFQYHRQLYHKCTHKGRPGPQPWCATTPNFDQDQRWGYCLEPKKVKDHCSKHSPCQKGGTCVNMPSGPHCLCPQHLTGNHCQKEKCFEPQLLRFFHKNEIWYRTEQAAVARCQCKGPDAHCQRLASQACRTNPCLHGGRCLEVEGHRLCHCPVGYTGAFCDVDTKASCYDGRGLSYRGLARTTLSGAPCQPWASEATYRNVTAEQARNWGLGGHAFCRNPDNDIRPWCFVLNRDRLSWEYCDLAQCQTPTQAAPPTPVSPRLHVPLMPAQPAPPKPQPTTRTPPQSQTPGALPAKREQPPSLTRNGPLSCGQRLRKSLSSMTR
Sequence of Coagulation factor XII (P00748 373-615 limits assumed): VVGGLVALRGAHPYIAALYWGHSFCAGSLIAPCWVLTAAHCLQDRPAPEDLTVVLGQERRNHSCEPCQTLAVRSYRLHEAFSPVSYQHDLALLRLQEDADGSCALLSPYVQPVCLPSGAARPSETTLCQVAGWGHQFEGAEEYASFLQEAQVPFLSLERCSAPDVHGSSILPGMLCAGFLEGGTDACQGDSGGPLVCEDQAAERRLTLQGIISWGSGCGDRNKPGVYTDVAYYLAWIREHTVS
Sequence of G-protein coupled receptor 55 (Q9Y2T6 whole entry): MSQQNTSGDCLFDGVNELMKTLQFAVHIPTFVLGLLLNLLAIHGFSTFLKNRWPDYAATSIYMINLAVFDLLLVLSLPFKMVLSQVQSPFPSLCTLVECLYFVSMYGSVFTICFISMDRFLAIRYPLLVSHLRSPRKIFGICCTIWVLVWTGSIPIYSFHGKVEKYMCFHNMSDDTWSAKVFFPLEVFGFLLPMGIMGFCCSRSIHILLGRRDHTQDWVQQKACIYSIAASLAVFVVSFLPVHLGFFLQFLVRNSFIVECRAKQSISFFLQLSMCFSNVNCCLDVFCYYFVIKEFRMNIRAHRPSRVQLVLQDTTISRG

With `CC1(C)CC(=O)C=C(NNC(=O)c2ccccc2O)C1`, the IC50 at Coagulation factor XII was > 50 µM (inactive).

On to `Nc1nc(-c2ccccc2)cc(N2CCCCC2)n1`, for which the IC50 in assay [1] was > 80 µM (inactive).

Consider `O=C(C1CCN(Cc2cc(Cl)ccc2O)CC1)N1CCN(Cc2ccccc2)CC1`, for which the results for the IC50 in [2] and in assay [3] were 81 µM (active) and > 64 µM (inactive), respectively.

For the compound `COCc1c(N)c(C)nc(Cl)c1C#N`, the IC50 was 13.9 µM (active) in assay [4], 50 µM (inactive) in assay [3], > 50 µM (inactive) in assay [5] and 13.3 µM (active) in assay [6].

For the compound `Sc1nnc(-c2ccco2)n1-c1ccc(Br)cc1`, the IC50 is > 100 µM (inactive) in assay [7] and 1.5 µM (active) in [6].

For `CCCN(CCC)Cc1c(C(=O)N/N=C/C(C)=C\c2ccco2)nnn1-c1nonc1N`, the EC50 in [8] is 0.625 µM (active). At Paired box protein Pax-8, the half-maximal activity concentration (AC50) was 2.86 µM (active).

With `COc1ccc(OC)c(/C=N/Nc2cc(C)nc(N3CCOCC3)n2)c1`, the IC50 on Coagulation factor XII was > 50 µM (inactive).

As usually defined, the IC50 is the point on the concentration scale where inhibition reaches its midpoint. In general, EC50 refers to the concentration that produces a half-maximal response. The AC50 is the concentration at which the activity in the assay is half-maximal.

The values above are taken from ChEMBL document CHEMBL1201862, “PubChem BioAssay data set” (2004).
